Results as given in patent publication US20260240878A1, “PTP1B/TC-PTP DUAL INHIBITORS AND PROTEIN DEGRADERS” (Purdue Research Foundation, priority 2023, published 2026).
*1 amine or outer side, *2 acyl side, *3 side chain or, on linkers, in order; H or OH if unused. Where a SMILES comes first, the peptide text is derived from it. [ ]: non-standard residue; d: D form. The star is where a group is joined. NHBn(4-(4-Me-thiazol-5-yl)) = Cc1ncsc1-c1ccc(CN*)cc1; F2Pmp = N[C@@H](Cc1ccc(C(F)(F)P(=O)(O)O)cc1)C(=O)O; Phenylacetyl(4-OH,3-OMe) = COc1cc(CC(=O)*)ccc1O; Benzoyl(3-Br,4-Me) = Cc1ccc(C(=O)*)cc1Br; NH(CH2)9CO = O=C(CCCCCCCCCN[*:1])[*:2]; Hyp = O=C(O)[C@@H]1C[C@@H](O)CN1; dHyp = O=C(O)[C@H]1C[C@H](O)CN1; dTle = CC(C)(C)[C@@H](N)C(=O)O; Tle = CC(C)(C)[C@H](N)C(=O)O; 12Ado = NCCCCCCCCCCCC(=O)O; Aoc = NCCCCCCCC(=O)O; Ahp = NCCCCCCC(=O)O; Ava = NCCCCC(=O)O

Legend:
PTP1B [1] = molecular target: T1, PTP1B (Homo sapiens, UniProt P18031); test: Degradation assay in HEK293 cells (immunoblotting); assay type: cell-based; parameters: Degradation assay was conducted in HEK293 cells with 1 μM degrader and 24 hours incubation; endogenous in cells; host or cells: HEK293; details: 1 μM degrader, 24 hours
T1 sequence (P18031 1-435): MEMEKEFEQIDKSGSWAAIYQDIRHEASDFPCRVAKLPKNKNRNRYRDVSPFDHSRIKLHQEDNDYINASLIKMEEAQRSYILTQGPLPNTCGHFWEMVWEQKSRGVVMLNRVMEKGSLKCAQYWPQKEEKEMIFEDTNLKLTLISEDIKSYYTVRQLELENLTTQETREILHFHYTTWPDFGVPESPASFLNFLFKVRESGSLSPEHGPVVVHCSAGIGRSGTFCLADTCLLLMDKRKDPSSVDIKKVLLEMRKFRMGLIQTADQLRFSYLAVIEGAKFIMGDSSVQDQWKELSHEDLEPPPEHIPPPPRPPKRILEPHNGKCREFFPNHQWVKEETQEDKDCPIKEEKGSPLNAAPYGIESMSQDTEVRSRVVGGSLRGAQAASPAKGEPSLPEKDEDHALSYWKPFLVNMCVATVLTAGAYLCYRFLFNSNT
Method: (§1) HEK293. MIAPaCa-2, HepG2, U2OS, H116, MEF, B16F10, and MC38 cells, were grown in DMEM, while Jurkat and H358 cells were grown in RPMI 1640 supplemented with 10% fetal bovine serum, penicillin (50 units/mL), and streptomycin (50 μg/mL) in a 37° C. incubator containing 5% CO2. 20 ng/ml human (Biolegend #713906) or mouse (Biolegend #714006) Interferon-γ were used for JAK/STAT pathway stimulation.
(§2) Tissues or cultured cells were lysed with ice-cold lysis buffer (50 mM Tris (pH 8.0, 150 mM NaCl, 10% Glycerol, 1% Triton-X-100) supplied with phosphatase inhibitor (Bimake) and protease inhibitor mixture (Roche Applied Science). Equal amounts of protein were resolved by SDS-PAGE, transferred to nitrocellulose membrane, and subjected to immunoblotting. Antibodies used in this study include anti-following proteins: pSTAT1^Tyr701 (Cell Signaling Technology #9167, 1:3000), GAPDH (Cell Signaling Technology #97166, 1:5000), pJAK1^Tyr1034/1035 (Cell Signaling Technology #74129, 1:1000), pJAK2^Tyr1007/1008 (Cell Signaling Technology #3776, 1:1000), TC-PTP (Abcam #ab180764, 1:3000). PTP1B (Abcam #ab244207, 1:1500).
(§3) Degradation assay was conducted in HEK293 cells with 1 μM degrader and 24 hours incubation.
(§4) The degradation assay was conducted in HEK293 cells with 0.2 μM degrader and 16 hours incubation.

TC-PTP [2] = molecular target: T2, TC-PTP (Homo sapiens, UniProt P17706); test: Degradation assay in HEK293 cells (immunoblotting); assay type: cell-based; parameters: Degradation assay was conducted in HEK293 cells with 1 μM degrader and 24 hours incubation; endogenous in cells; host or cells: HEK293; details: 1 μM degrader, 24 hours, read-out: % Protein Degradation TC-PTP
T2 sequence (P17706 1-415): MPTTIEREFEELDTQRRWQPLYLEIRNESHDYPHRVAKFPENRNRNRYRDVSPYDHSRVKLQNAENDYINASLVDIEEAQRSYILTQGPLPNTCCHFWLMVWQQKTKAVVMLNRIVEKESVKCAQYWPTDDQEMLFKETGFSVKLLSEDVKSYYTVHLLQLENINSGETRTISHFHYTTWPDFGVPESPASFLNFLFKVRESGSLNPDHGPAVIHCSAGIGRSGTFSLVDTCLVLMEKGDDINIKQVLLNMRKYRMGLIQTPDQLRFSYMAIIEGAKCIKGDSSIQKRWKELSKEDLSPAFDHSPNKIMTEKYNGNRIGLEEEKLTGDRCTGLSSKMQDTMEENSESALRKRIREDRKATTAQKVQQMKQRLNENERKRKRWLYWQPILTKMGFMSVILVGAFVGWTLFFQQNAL
Method: as §1, §2, §3, §4

PTP1B [3] = molecular target: T1, PTP1B; test: PTP activity assay with pNPP substrate (IC50, Ki, mode of inhibition); assay type: biochemical; details: pNPP 2 mM, pH 7.0, 25° C.; read-out: IC50, nM PTP1B
Method: (§5) PTP activity was assayed using p-nitrophenyl phosphate (pNPP) as a substrate in DMG buffer (50 mM DMG. pH 7.0, 1 mM EDTA, 150 mM NaCl, 2 mM DTT, 0.1 mg/mL BSA) at 25° C. The assays were performed in 96-well plates. Normally, to determine the IC50 values, the reaction was initiated by the addition of enzyme (for PTP1B and TCPTP, the final concentration was 0.4 nM, for other PTPs, the final concentration was 10 nM) to a reaction mixture (0.2 mL) containing 2 mM (Km for the substrate) pNPP with various concentrations of inhibitors (see FIG. 1). The reaction rate was measured using a SpectraMax Plus 384 Microplate Spectrophotometer (Molecular Devices). Data were fitted using SigmaPlot Enzyme Kinetics Module (Systat Software, Inc.). To determine the mode of inhibition, the reactions were initiated by the addition of enzyme (final concentration for TC-PTP and PTP1B was 0.4 nM) to the reaction mixtures (0.2 mL) containing various concentrations of pNPP with different concentrations of the inhibitor. Data were fitted using SigmaPlot Enzyme Kinetics Module (Systat Software. Inc.).

TC-PTP [4] = molecular target: T2, TC-PTP; test: as above; assay type: biochemical; details: pNPP 2 mM, pH 7.0, 25° C.; read-out: IC50, nM TC-PTP
Method: as §5

Structure (SMILES)	% Protein Degradation PTP1B (PTP1B [1]) [%]	percent TC-PTP degradation at 1 µM (TC-PTP [2]) [%]	IC50 (PTP1B [3]) [nM]	IC50 (TC-PTP [4]) [nM]
COc1cc(CC(=O)N[C@@H](Cc2ccccc2)C(=O)N[C@@H](Cc2ccc(C(F)(F)P(=O)(O)O)cc2)C(=O)N[C@@H](CCCCNC(=O)c2ccc(C)c(Br)c2)C(=O)NCCCCCCCCCC(=O)N[C@H](C(=O)N2C[C@H](O)C[C@H]2C(=O)NCc2ccc(-c3scnc3C)cc2)C(C)(C)C)ccc1O [Compound 14, ((4-((S)-3-(((S)-6-(3-bromo-4-methylbenzamido)-1-((10-(((S)-1-((2S,4R)-4-hydroxy-2-((4-(4-methylthiazol-5-yl)benzyl)carbamoyl)pyrrolidin-1-yl)-3,3-dimethyl-1-oxobutan-2-yl)amino)-10-oxodecyl)amino)-1-oxohexan-2-yl)amino)-2-((S)-2-(2-(4-hydroxy-3-methoxyphenyl)acetamido)-3-phenylpropanamido)-3-oxopropyl)phenyl)difluoromethyl)phosphonic Acid] ({Phenylacetyl(4-OH,3-OMe)}-F[F2Pmp]K(Benzoyl(3-Br,4-Me))[NH(CH2)9CO][Tle][Hyp]-{NHBn(4-(4-Me-thiazol-5-yl))})	38	62	10.3 ± 0.6	6.8 ± 0.3
COc1cc(CC(=O)N[C@@H](Cc2ccccc2)C(=O)N[C@@H](Cc2ccc(C(F)(F)P(=O)(O)O)cc2)C(=O)N[C@@H](CCCCNC(=O)c2ccc(C)c(Br)c2)C(=O)NCCCCCCC(=O)N[C@@H](C(=O)N2C[C@@H](O)C[C@@H]2C(=O)NCc2ccc(-c3scnc3C)cc2)C(C)(C)C)ccc1O [Compound 10, ((4-((S)-3-(((S)-6-(3-bromo-4-methylbenzamido)-1-((7-(((R)-1-((2R,4S)-4-hydroxy-2-((4-(4-methylthiazol-5-yl)benzyl)carbamoyl)pyrrolidin-1-yl)-3,3-dimethyl-1-oxobutan-2-yl)amino)-7-oxoheptyl)amino)-1-oxohexan-2-yl)amino)-2-((S)-2-(2-(4-hydroxy-3-methoxyphenyl)acetamido)-3-phenylpropanamido)-3-oxopropyl)phenyl)difluoromethyl)phosphonic Acid] ({Phenylacetyl(4-OH,3-OMe)}-F[F2Pmp]K(Benzoyl(3-Br,4-Me))[Ahp][dTle][dHyp]-{NHBn(4-(4-Me-thiazol-5-yl))})	61	69	7.4 ± 0.6	6.8 ± 0.6
COc1cc(CC(=O)N[C@@H](Cc2ccccc2)C(=O)N[C@@H](Cc2ccc(C(F)(F)P(=O)(O)O)cc2)C(=O)N[C@@H](CCCCNC(=O)c2ccc(C)c(Br)c2)C(=O)NCCCCC(=O)N[C@@H](C(=O)N2C[C@@H](O)C[C@@H]2C(=O)NCc2ccc(-c3scnc3C)cc2)C(C)(C)C)ccc1O [Compound 6, ((4-((S)-3-(((S)-6-(3-bromo-4-methylbenzamido)-1-((5-(((R)-1-((2R,4S)-4-hydroxy-2-((4-(4-methylthiazol-5-yl)benzyl)carbamoyl)pyrrolidin-1-yl)-3,3-dimethyl-1-oxobutan-2-yl)amino)-5-oxopentyl)amino)-1-oxohexan-2-yl)amino)-2-((S)-2-(2-(4-hydroxy-3-methoxyphenyl)acetamido)-3-phenylpropanamido)-3-oxopropyl)phenyl)difluoromethyl)phosphonic Acid] ({Phenylacetyl(4-OH,3-OMe)}-F[F2Pmp]K(Benzoyl(3-Br,4-Me))[Ava][dTle][dHyp]-{NHBn(4-(4-Me-thiazol-5-yl))})	53	58	29.4 ± 2.1	34.3 ± 14.8
COc1cc(CC(=O)N[C@@H](Cc2ccccc2)C(=O)N[C@@H](Cc2ccc(C(F)(F)P(=O)(O)O)cc2)C(=O)N[C@@H](CCCCNC(=O)c2ccc(C)c(Br)c2)C(=O)NCCCCCCCC(=O)N[C@@H](C(=O)N2C[C@@H](O)C[C@@H]2C(=O)NCc2ccc(-c3scnc3C)cc2)C(C)(C)C)ccc1O [Compound 83, ((4-((S)-3-(((S)-6-(3-bromo-4-methylbenzamido)-1-((8-(((R)-1-((2R,4S)-4-hydroxy-2-((4-(4-methylthiazol-5-yl)benzyl)carbamoyl)pyrrolidin-1-yl)-3,3-dimethyl-1-oxobutan-2-yl)amino)-8-oxooctyl)amino)-1-oxohexan-2-yl)amino)-2-((S)-2-(2-(4-hydroxy-3-methoxyphenyl)acetamido)-3-phenylpropanamido)-3-oxopropyl)phenyl)difluoromethyl)phosphonic Acid] ({Phenylacetyl(4-OH,3-OMe)}-F[F2Pmp]K(Benzoyl(3-Br,4-Me))[Aoc][dTle][dHyp]-{NHBn(4-(4-Me-thiazol-5-yl))})	58	66	19 ± 1.9	10.6 ± 0.3
COc1cc(CC(=O)N[C@@H](Cc2ccccc2)C(=O)N[C@@H](Cc2ccc(C(F)(F)P(=O)(O)O)cc2)C(=O)N[C@@H](CCCCNC(=O)c2ccc(C)c(Br)c2)C(=O)NCCCCCCCCCCCC(=O)N[C@H](C(=O)N2C[C@H](O)C[C@H]2C(=O)NCc2ccc(-c3scnc3C)cc2)C(C)(C)C)ccc1O [Compound 18, ((4-((S)-3-(((S)-6-(3-bromo-4-methylbenzamido)-1-((12-(((S)-1-((2S,4R)-4-hydroxy-2-((4-(4-methylthiazol-5-yl)benzyl)carbamoyl)pyrrolidin-1-yl)-3,3-dimethyl-1-oxobutan-2-yl)amino)-12-oxododecyl)amino)-1-oxohexan-2-yl)amino)-2-((S)-2-(2-(4-hydroxy-3-methoxyphenyl)acetamido)-3-phenylpropanamido)-3-oxopropyl)phenyl)difluoromethyl)phosphonic Acid] ({Phenylacetyl(4-OH,3-OMe)}-F[F2Pmp]K(Benzoyl(3-Br,4-Me))[12Ado][Tle][Hyp]-{NHBn(4-(4-Me-thiazol-5-yl))})	29	30	22.3 ± 1.1	8.9 ± 0.6
